# Reference: patent publication US8895695B2, “Template-fixed beta-hairpin peptidomimetics with CXCR4 antagonizing activity” (priority 2003, dated 2014)
# Bridge positions count the residues as written; N and C are the ends. Square brackets hold non-standard residues; d marks the D form. Peptide text beside a SMILES is read from it. 2Nal = N[C@@H](Cc1ccc2ccccc2c1)C(=O)O; 4Pal = N[C@@H](Cc1ccncc1)C(=O)O; Cit = NC(=O)NCCC[C@H](N)C(=O)O; Dab = NCC[C@H](N)C(=O)O
# Columns and labels:
# [1] = target: CXCR4 (Homo sapiens, UniProt P61073); assay: Ca2+-assay method 2 (Flexstation, SDF-1 induced calcium mobilization); type: cell-based; parameters: expressed in transfected cells; host or cells: mouse pre-B cell line 300-19; settings: method 2 (Ex. 54-160), mouse pre-B cell line 300-19 with human CXCR4, 10 nM SDF-1; read-out: IC50 (nM) Ca^2+ assay
# Sequence of CXCR4 (P61073 whole entry): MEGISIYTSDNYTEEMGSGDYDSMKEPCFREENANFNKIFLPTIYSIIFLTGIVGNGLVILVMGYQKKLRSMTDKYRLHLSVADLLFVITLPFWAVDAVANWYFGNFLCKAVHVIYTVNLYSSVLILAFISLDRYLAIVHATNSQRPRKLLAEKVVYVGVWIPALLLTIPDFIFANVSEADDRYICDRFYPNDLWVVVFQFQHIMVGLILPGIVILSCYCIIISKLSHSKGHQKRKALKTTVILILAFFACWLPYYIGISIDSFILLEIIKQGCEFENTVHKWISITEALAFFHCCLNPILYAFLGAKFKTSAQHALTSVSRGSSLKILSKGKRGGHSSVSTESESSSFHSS
# Description: 2.2. Ca^2+-Assay: CXCR4-Antagonizing Activity of the Peptides.
# The cells were batch loaded with the Calcium 3 Assay kit (Molecular Devices) in assay buffer (Hanks Balanced salt solution, HBSS, 20 mM HEPES, pH 7.4, 0.1% BSA) for 1 h at room temperature and then 200,000 labeled cells were dispensed into black 96 well assays plates (Costar No. 3603). A 20-fold concentrated solution of peptide in assay buffer was added to the cells and the whole plate was centrifuged to settle the cells to the bottom of the wells. Calcium mobilization induced by 10 nM stromal-derived factor-1 (SDF-1) was measured in the Flexstation 384 (excitation, 485 nM; emission, 525 nM) for 90 seconds. A maximal change in fluorescence response above baseline was used to calculate antagonist activity. The data for dose response curves (antagonist concentration versus % maximum response) were fitted to a four parameter logistic equation using SoftmaxPro 4.6 (Molecular Devices), from which IC50% values were calculated.
# [2] = tested on: human red blood cells (hRBC); assay: Hemolysis; type: cell-based
# Description: The peptides were tested for their hemolytic activity against human red blood cells (hRBC). Fresh hRBC were washed three times with phosphate buffered saline (PBS) by centrifugation for 10 min at 2000×g. Peptides at a concentration of 100 μM were incubated with 20% v/v hRBC for 1 hour at 37° C. The final erythrocyte concentration was approximately 0.9×10^9 cells per ml. A value of 0% resp. 100% cell lysis was determined by incubation of the hRBC in the presence of PBS alone and respectively 0.1% Triton X-100 in H2O. The samples were centrifuged and the supernatant was 20-fold diluted in PBS buffer and the optical density (OD) of the sample at […] was measured. The 100% lyses value (OD540H2O) gave an OD540 of approximately 1.3-1.8. Percent hemolysis was calculated as follows: (OD540peptide/OD540H2O)×100%.
# [3] = in vitro; settings: human
# 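Throughout, for GI50: MTT reduction read as absorbance at 595 nm, blank-corrected and expressed as percent growth relative to the time-zero cell reading, triplicate wells per concentration.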
SMILES,IC50 [1],Hemolysis at 100 μM [2],GI50 at 48 h [3]
N=C(N)NCCC[C@@H]1NC(=O)CNC(=O)[C@@H]2CCCN2C(=O)[C@H]2CCCN2C(=O)[C@H](CCCCN)NC(=O)[C@H](CCCNC(N)=O)NC(=O)[C@H](Cc2ccc(O)cc2)NC(=O)[C@@H]2CSSC[C@H](NC(=O)[C@H](CCCNC(N)=O)NC1=O)C(=O)N[C@@H](CCCNC(=N)N)C(=O)NCC(=O)N1CCC[C@@H]1C(=O)N[C@@H](CCCNC(=N)N)C(=O)N[C@@H](CCCNC(=N)N)C(=O)N[C@@H](Cc1ccc3ccccc3c1)C(=O)N2 [Ex. 114] (cyclo(GR[Cit]CRG[dP]RR[2Nal]CY[Cit]K[dP]P); disulfide 4-11),1.3 nM,0%,67000 nM
N=C(N)NCCC[C@@H]1NC(=O)[C@@H]2CSSC[C@H](NC(=O)[C@H](Cc3ccc4ccccc4c3)NC(=O)[C@H](CCCNC(=N)N)NC(=O)[C@H](CCCNC(=N)N)NC(=O)[C@H]3CCCN3C(=O)CNC1=O)C(=O)N[C@@H](Cc1ccc(O)cc1)C(=O)N[C@@H](Cc1ccc(O)cc1)C(=O)N[C@@H](CCCCN)C(=O)N1CCC[C@@H]1C(=O)N1CCC[C@H]1C(=O)N[C@@H](Cc1ccc(O)cc1)C(=O)N[C@@H](CCCNC(=N)N)C(=O)N[C@@H](CCCNC(N)=O)C(=O)N2 [Ex. 59] (cyclo(YR[Cit]CRG[dP]RR[2Nal]CYYK[dP]P); disulfide 4-11),7.8 nM,0.1%,33000 nM
N=C(N)NCCC[C@@H]1NC(=O)[C@@H]2CSSC[C@H](NC(=O)[C@H](Cc3c[nH]c4ccccc34)NC(=O)[C@H](CCCNC(=N)N)NC(=O)[C@H](CCCNC(=N)N)NC(=O)[C@H]3CCCN3C(=O)CNC1=O)C(=O)N[C@@H](Cc1ccc(O)cc1)C(=O)N[C@@H](CCCNC(N)=O)C(=O)N[C@@H](CCCCN)C(=O)N1CCC[C@@H]1C(=O)N1CCC[C@H]1C(=O)N[C@@H](Cc1ccc(O)cc1)C(=O)N[C@@H](CCCNC(=N)N)C(=O)N[C@@H](CCCNC(N)=O)C(=O)N2 [Ex. 123] (cyclo(YR[Cit]CRG[dP]RRWCY[Cit]K[dP]P); disulfide 4-11),10 nM,0%,80000 nM
N=C(N)NCCC[C@@H]1NC(=O)[C@@H]2CSSC[C@H](NC(=O)[C@H](Cc3ccc4ccccc4c3)NC(=O)[C@H](CCCNC(=N)N)NC(=O)[C@H](CCCNC(=N)N)NC(=O)[C@H]3CCCN3C(=O)CNC1=O)C(=O)N[C@@H](Cc1ccc(O)cc1)C(=O)N[C@@H](CCC(N)=O)C(=O)N[C@@H](CO)C(=O)N1CCC[C@@H]1C(=O)N1CCC[C@H]1C(=O)N[C@@H](Cc1ccc(O)cc1)C(=O)N[C@@H](CCCNC(=N)N)C(=O)N[C@@H](CCCNC(N)=O)C(=O)N2 [Ex. 87] (cyclo(YR[Cit]CRG[dP]RR[2Nal]CYQS[dP]P); disulfide 4-11),3.5 nM,0%,64000 nM
CC[C@H](C)[C@@H]1NC(=O)[C@@H]2CCCN2C(=O)[C@H]2CCCN2C(=O)[C@H](CCCCN)NC(=O)[C@H](CCC(N)=O)NC(=O)[C@H](Cc2ccc(O)cc2)NC(=O)[C@@H]2CSSC[C@H](NC(=O)[C@H](CCCNC(N)=O)NC(=O)[C@H](CCCNC(=N)N)NC1=O)C(=O)N[C@@H](CCCNC(=N)N)C(=O)NCC(=O)N1CCC[C@@H]1C(=O)N[C@@H](CCCNC(=N)N)C(=O)N[C@@H](CCCNC(=N)N)C(=O)N[C@@H](Cc1ccc3ccccc3c1)C(=O)N2 [Ex. 65] (cyclo(IR[Cit]CRG[dP]RR[2Nal]CYQK[dP]P); disulfide 4-11),3.9 nM,0.2%,65000 nM
N=C(N)NCCC[C@@H]1NC(=O)[C@@H]2CSSC[C@H](NC(=O)[C@H](Cc3ccc4ccccc4c3)NC(=O)[C@H](CCCNC(=N)N)NC(=O)[C@H](CCCNC(=N)N)NC(=O)[C@H]3CCCN3C(=O)CNC1=O)C(=O)N[C@@H](Cc1ccc(O)cc1)C(=O)N[C@@H](Cc1c[nH]cn1)C(=O)N[C@@H](CCCCN)C(=O)N1CCC[C@@H]1C(=O)N1CCC[C@H]1C(=O)N[C@@H](Cc1ccc(O)cc1)C(=O)N[C@@H](CCCNC(=N)N)C(=O)N[C@@H](CCCNC(N)=O)C(=O)N2 [Ex. 58] (cyclo(YR[Cit]CRG[dP]RR[2Nal]CYHK[dP]P); disulfide 4-11),10.5 nM,0%,18000 nM
C[C@@H](O)[C@@H]1NC(=O)[C@H](CCCNC(=N)N)NC(=O)[C@H](Cc2ccc(O)cc2)NC(=O)[C@@H]2CCCN2C(=O)[C@H]2CCCN2C(=O)[C@H](CCCCN)NC(=O)[C@H](CCC(N)=O)NC(=O)[C@H](Cc2ccc(O)cc2)NC(=O)[C@@H]2CSSC[C@H](NC1=O)C(=O)N[C@@H](CCCNC(=N)N)C(=O)NCC(=O)N1CCC[C@@H]1C(=O)N[C@@H](Cc1ccncc1)C(=O)N[C@@H](CCCNC(=N)N)C(=O)N[C@@H](Cc1c[nH]c3ccccc13)C(=O)N2 [Ex. 118] (cyclo(YRTCRG[dP][4Pal]RWCYQK[dP]P); disulfide 4-11),7.6 nM,0%,52000 nM
N=C(N)NCCC[C@@H]1NC(=O)[C@@H]2CSSC[C@H](NC(=O)[C@H](Cc3ccc4ccccc4c3)NC(=O)[C@H](CCCNC(=N)N)NC(=O)[C@H](CCCNC(=N)N)NC(=O)[C@H]3CCCN3C(=O)CNC1=O)C(=O)N[C@@H](Cc1ccc(O)cc1)C(=O)N[C@@H](CCC(N)=O)C(=O)N[C@@H](CCCCN)C(=O)N1CCC[C@@H]1C(=O)N1CCC[C@H]1C(=O)N[C@@H](Cc1ccc(O)cc1)C(=O)N[C@@H](CCCNC(=N)N)C(=O)N[C@@H](CCCCN)C(=O)N2 [Ex. 94] (cyclo(YRKCRG[dP]RR[2Nal]CYQK[dP]P); disulfide 4-11),2.5 nM,0.2%,45000 nM
N=C(N)NCCC[C@@H]1NC(=O)[C@@H]2CSSC[C@H](NC(=O)[C@H](Cc3ccc4ccccc4c3)NC(=O)[C@H](CCCNC(=N)N)NC(=O)[C@H](CCCNC(=N)N)NC(=O)[C@H]3CCCN3C(=O)CNC1=O)C(=O)N[C@@H](Cc1ccc(O)cc1)C(=O)N[C@@H](CO)C(=O)N[C@@H](CCCCN)C(=O)N1CCC[C@@H]1C(=O)N1CCC[C@H]1C(=O)N[C@@H](Cc1ccc(O)cc1)C(=O)N[C@@H](CCCNC(=N)N)C(=O)N[C@@H](CCCNC(N)=O)C(=O)N2 [Ex. 81] (cyclo(YR[Cit]CRG[dP]RR[2Nal]CYSK[dP]P); disulfide 4-11),4.9 nM,0%,45000 nM
N=C(N)NCCC[C@@H]1NC(=O)[C@@H]2CCC(=O)NCC[C@H](NC(=O)[C@H](Cc3c[nH]c4ccccc34)NC(=O)[C@H](CCCNC(=N)N)NC(=O)[C@H](CCCNC(=N)N)NC(=O)[C@H]3CCCN3C(=O)CNC1=O)C(=O)N[C@@H](Cc1ccc(O)cc1)C(=O)N[C@@H](CCCNC(N)=O)C(=O)N[C@@H](CCCCN)C(=O)N1CCC[C@@H]1C(=O)N1CCC[C@H]1C(=O)N[C@@H](Cc1ccc(O)cc1)C(=O)N[C@@H](CCCNC(=N)N)C(=O)N[C@@H](CCCNC(N)=O)C(=O)N2 [Ex. 153] (cyclo(YR[Cit]ERG[dP]RRW[Dab]Y[Cit]K[dP]P); lactam 4-11),21.9 nM,1.7%,43000 nM
CN1CC(=O)N[C@@H](CCCCN)C(=O)N2CCC[C@@H]2C(=O)N2CCC[C@H]2C(=O)N[C@@H](Cc2ccc(O)cc2)C(=O)N[C@@H](CCCNC(=N)N)C(=O)N[C@@H](CCCNC(N)=O)C(=O)N[C@H]2CSSC[C@H](NC(=O)[C@H](Cc3ccc4ccccc4c3)NC(=O)[C@H](CCCNC(=N)N)NC(=O)[C@H](CCCNC(=N)N)NC(=O)[C@H]3CCCN3C(=O)CNC(=O)[C@H](CCCNC(=N)N)NC2=O)C(=O)N[C@@H](Cc2ccc(O)cc2)C1=O [Ex. 129],10.9 nM,0%,23000 nM
CC(C)C[C@@H]1NC(=O)[C@H](CCCNC(=N)N)NC(=O)[C@H](Cc2ccc(O)cc2)NC(=O)[C@@H]2CCCN2C(=O)[C@H]2CCCN2C(=O)[C@H](CCCCN)NC(=O)[C@H](CCC(N)=O)NC(=O)[C@H](Cc2ccc(O)cc2)NC(=O)[C@@H]2CSSC[C@H](NC1=O)C(=O)N[C@@H](CCCNC(=N)N)C(=O)NCC(=O)N1CCC[C@@H]1C(=O)N[C@@H](CCCNC(=N)N)C(=O)N[C@@H](CCCNC(=N)N)C(=O)N[C@@H](Cc1ccc3ccccc3c1)C(=O)N2 [Ex. 97] (cyclo(YRLCRG[dP]RR[2Nal]CYQK[dP]P); disulfide 4-11),4.3 nM,0.8%,44000 nM
N=C(N)NCCC[C@@H]1NC(=O)[C@@H]2CSSC[C@H](NC(=O)[C@H](Cc3ccc4ccccc4c3)NC(=O)[C@H](CCCNC(=N)N)NC(=O)[C@H](CCCNC(=N)N)NC(=O)[C@H]3CCCN3C(=O)CNC1=O)C(=O)N[C@@H](Cc1ccc(O)cc1)C(=O)N[C@@H](CCC(N)=O)C(=O)N[C@@H](CCCCN)C(=O)N1CCC[C@@H]1C(=O)N1CCC[C@H]1C(=O)N[C@@H](Cc1ccc(O)cc1)C(=O)N[C@@H](CCCNC(=N)N)C(=O)N[C@@H](CC(=O)O)C(=O)N2 [Ex. 93] (cyclo(YRDCRG[dP]RR[2Nal]CYQK[dP]P); disulfide 4-11),4.3 nM,0.2%,> 100000 nM
